The values below come from US12662451B2, “Chemical compounds and uses thereof” (GLAXOSMITHKLINE INTELLECTUAL PROPERTY (NO.4) LIMITED, priority 2023, dated 2026).

Data set [1] relates to SW48 human colorectal cancer cells (MSI-H cancer cells).
For data set [2], the target named is T1, recombinant full-length WRN protein (1-1432) (Homo sapiens, UniProt Q14191).
T1 construct: recombinant full-length WRN protein (1-1432)
Kind of data set: WRN unwinding activity, fluorogenic 384-well assay (Example A). As to conditions: WRN unwinding activity, Table 2; for IC50: 4 hr, read-out: 4 hr UNW pIC50 (converted). Type of data set: biochemical. The method in brief:
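200 pM enzyme (2× stock) preincubated with compound 4 h at ambient temperature, then 200 μM ATP and 12 nM quenched TAMRA-labelled dsDNA (2× stocks) added for 60 min; EDTA-quenched. Buffer 25 mM Tris pH 8.0, 5 mM NaCl, 2 mM MgCl2. Fluorescence at 525/598 nm; pIC50 from four-parameter fit.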

Data set [3] deals with SW48 human colorectal cancer cells (MSI-H cancer cells). The data set can be described thus: SW48 cell viability, CellTiter-Glo, 120 hours (Example B). As to conditions: for CC50: Homo sapiens.
The nature of data set [4]: Cell culture media unbound percentage and stability by rapid equilibrium dialysis (Example C). Type of data set: in vitro ADME. To be noted: bovine, cell assay medium (RPMI-1640 with 10% fetal bovine serum), pH 7.4, rapid equilibrium dialysis, 4 hours at 37° C., read-out: Cell Culture Media Binding (% unbound). The method in brief:
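Compound spiked into cell culture medium at nominal 1 μM and dialysed against PBS (100 mM sodium phosphate + 150 mM NaCl, pH 7.4) by rapid equilibrium dialysis, triplicate, 4 h at 37° C with shaking. LC-MS/MS peak area ratios gave percent unbound (receiver/donor) and percent stability (240 min vs 0 min).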

Data set [5] concerns SW48 human colorectal cancer cells. The data set can be described thus: Calculated free drug potency in SW48 cell assay, corrected with media free fraction (Example C). It counts as cell-based. To be noted: Homo sapiens, SW48, SW48 pCC50 corrected with measured free fraction in cell assay media. The method in brief: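 Compound spiked at nominal 1 μM into cell assay medium and dialysed against PBS (100 mM sodium phosphate, 150 mM NaCl, pH 7.4) by rapid equilibrium dialysis, 4 h, 37 °C, shaking. Percent unbound from LC-MS/MS peak area ratios (240 min vs 0 min); cell assay concentrations corrected by this free fraction.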

Data set [6] relates to SW48 human colorectal cancer cell line xenografts. Kind of data set: In vivo efficacy in mouse model bearing SW48 xenografts (Example D). As to conditions: SW48 xenograft, female nude mice. On the procedure:
In Viva Efficacy Study of Test Compounds in Mouse Model Bearing SW48 Human Colorectal Cancer Cell Line Xenografts
Experiments were performed with female Crl:Nu-Foxn1^nu nude mice. Animals were housed under optimized hygienic condition with food and water at libitum and a 12 h:12 h light:dark cycle. Animals were allowed to acclimatize for at least 4 days before being enrolled in the experimental design.
SW48 human colorectal cancer cells (RRID:CVCL1724) were obtained from ATCC. The cells were cultured in RPMI 1640 with 10% Fetal Bovine Serum at 37° C. in atmosphere of 5% CO2 in air. To establish SW48 xenografts, cells were harvested and resuspended in serum free RPM11640 and Matrigel before inoculation and 5×10^6 SW48 tumor cells were injected subcutaneously in 100 μL volume using 27G1/2 needle. Cells were inoculated in the right hind flank of the animals.
Post cell inoculation, tumor growth was monitored daily, and animals were randomized into treatment groups (n=10/group) once the tumor volume reached an appropriate size (80-150 mm^3). Throughout the treatment period, both tumor volume and body weight were measured approximately twice a week. The tumor size, in mm^3, was computed using the formula: 0.5×L×W^2, where W=width and L=length of the tumor. To prepare a test compound for oral administration, between 30-120 mg of the test compound was dissolved in a vehicle solution consisting of 0.5% Methycellulose (cp 400) and 0.5% Tween 80. The compound was freshly prepared one hour prior to daily administration. If turbidity was observed, the solution was vortexed at over 2000 rpm for 10 minutes and mixed with a 1 mL syringe. The resulting solution formulation was utilized for in vivo studies.
Animals received either a vehicle or test compounds at dosage of 30 or 100 mg/kg daily through oral gavage (10 ml/kg). Body weight was measured twice a week using the Ohaus electronic scale (STX421) and the data was automatically added to the study log. Moreover, daily clinical observations were performed to closely monitor the animals. Tumor growth inhibition was computed using the following formula:
[formula] where T=current group value; T0=Current group initial value; C=Control group Value; C0=control group initial value.
Data of tumor volume were exported and analyzed in GraphPad Prism (9.5). The analysis included a two-way ANOVA test, comparing the vehicle control vs. treatments at different time points, followed by a Tukey HSD post hoc test.
The calculation of tumor regression was conducted as per the following formula:
[formula] where Day 0=treatment start day; Δ tumor volume=mean tumor volume on the evaluation day—mean tumor volume Day 0.

[7] abbreviates: SW48, read-out: SW48 pCC50, measured potency from Example B, as repeated in Table 3 (converted).
Setting [8] is: SW48, 120 h, read-out: SW48 pCC50, SW48 cell viability, 120 hours incubation (converted), Table 2.

Like-named read-outs stand apart in the source and are kept apart here.

T1 sequence (Q14191 whole entry): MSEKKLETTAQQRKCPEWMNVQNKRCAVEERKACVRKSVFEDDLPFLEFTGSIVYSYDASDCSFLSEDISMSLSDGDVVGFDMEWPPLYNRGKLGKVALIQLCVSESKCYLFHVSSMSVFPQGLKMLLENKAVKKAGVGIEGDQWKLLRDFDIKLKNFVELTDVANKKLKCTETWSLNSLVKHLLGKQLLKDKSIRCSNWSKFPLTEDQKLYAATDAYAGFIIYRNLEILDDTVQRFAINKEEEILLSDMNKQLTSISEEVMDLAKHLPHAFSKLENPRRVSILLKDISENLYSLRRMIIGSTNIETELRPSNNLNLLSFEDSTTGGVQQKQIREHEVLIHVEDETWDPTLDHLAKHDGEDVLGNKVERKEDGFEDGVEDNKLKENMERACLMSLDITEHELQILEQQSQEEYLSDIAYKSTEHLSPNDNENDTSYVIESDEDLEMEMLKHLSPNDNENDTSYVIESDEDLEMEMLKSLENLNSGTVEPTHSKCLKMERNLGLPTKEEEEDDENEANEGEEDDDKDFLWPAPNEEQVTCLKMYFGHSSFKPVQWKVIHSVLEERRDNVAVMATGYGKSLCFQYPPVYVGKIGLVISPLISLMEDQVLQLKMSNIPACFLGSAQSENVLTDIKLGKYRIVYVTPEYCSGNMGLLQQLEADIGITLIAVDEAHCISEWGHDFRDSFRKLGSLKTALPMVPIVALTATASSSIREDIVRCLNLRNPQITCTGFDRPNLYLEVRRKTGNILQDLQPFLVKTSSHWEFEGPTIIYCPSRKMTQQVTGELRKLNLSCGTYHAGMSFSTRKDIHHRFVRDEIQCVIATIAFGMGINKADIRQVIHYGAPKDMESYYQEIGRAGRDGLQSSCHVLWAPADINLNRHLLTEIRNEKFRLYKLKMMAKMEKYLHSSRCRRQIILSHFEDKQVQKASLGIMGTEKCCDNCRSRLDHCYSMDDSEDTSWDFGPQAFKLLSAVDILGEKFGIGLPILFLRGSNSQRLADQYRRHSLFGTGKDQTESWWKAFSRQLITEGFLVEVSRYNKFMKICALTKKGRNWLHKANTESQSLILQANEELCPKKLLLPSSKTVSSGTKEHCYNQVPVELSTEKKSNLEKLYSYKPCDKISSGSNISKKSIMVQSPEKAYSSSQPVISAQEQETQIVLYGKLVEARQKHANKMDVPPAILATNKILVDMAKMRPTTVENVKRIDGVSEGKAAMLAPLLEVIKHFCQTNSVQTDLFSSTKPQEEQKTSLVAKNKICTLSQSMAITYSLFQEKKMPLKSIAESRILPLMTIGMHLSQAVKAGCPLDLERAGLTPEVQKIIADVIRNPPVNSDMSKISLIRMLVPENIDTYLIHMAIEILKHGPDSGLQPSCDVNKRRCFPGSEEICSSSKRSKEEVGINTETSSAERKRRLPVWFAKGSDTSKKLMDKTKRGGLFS

On to `Cc1nc2cc(S(=O)(=O)Nc3ccc([C@H]4CCC[C@@H](C(=O)Nc5ccc(C(F)(F)F)cc5F)[C@@H]4C(=O)O)cc3)ccc2[nH]1` (relative stereo) [Example 259, rel-(1R,2R,6S)-2-((2-fluoro-4-(trifluoromethyl)phenyl)carbamoyl)-6-(4-((2-methyl-1H-benzo[d]imidazole)-5-sulfonamido)phenyl)cyclohexane-1-carboxylic acid], for which, in data set [1], the “SW48 pCC50” value stood at 5.4. Also, the “4 hr UNW pIC50” value in data set [2] came out at 9.2.
Turning to `Cc1nc2cc(S(=O)(=O)N(C)c3ccc([C@H]4CCC[C@@H](C(=O)Nc5ccc(C(F)(F)F)cc5F)[C@@H]4C(=O)O)cc3)ccc2n1C` (single isomer, unassigned) [Example 83], the CC50 in data set [3] (setting [7]) was 251 nM; in data set [5], 12.9 nM. Further, the “SW48 pCC50” value in data set [3] (SW48 cell viability, 120 hours incubation, Table 2) was 6.6. The fraction unbound at 4 h, 1 µM in data set [4] is 0.065. Further, the mean tumor regression in data set [6] (100 mpk daily oral, 55th day) is on record as −24.01%. Further, the IC50 in data set [2] was 2.51 nM.
Regarding `CCO[C@@H]1C[C@H](c2ccc(N(C)S(=O)(=O)c3ccc4c(c3)nc(C)n4C)cc2)[C@@H](C(=O)O)[C@H](C(=O)Nc2ccc(C(F)(F)F)cc2F)C1` (single isomer, unassigned) [Example 138], the figures for the CC50 in data set [3] (setting [8]), in data set [3] (setting [7]) and in data set [5] were 251 nM, 251 nM and 17 nM, respectively. Also, the fraction unbound at 4 h, 1 µM in data set [4] was determined as 0.067. Moreover, the mean tumor regression in data set [6] (30 mpk orally once a day, 21st day) is −74.26%. For the same compound, the IC50 in data set [2] was 3.16 nM.
Consider `COC[C@@H]1C[C@H](c2ccc(N(C)S(=O)(=O)c3ccc4c(c3)nc(C)n4C)cc2)[C@@H](C(=O)O)[C@H](C(=O)Nc2ccc(C(F)(F)F)cc2F)C1` (single isomer, unassigned) [Example 250], for which the CC50 in data set [3] (setting [8]) was 316 nM; in data set [3] (setting [7]), 316 nM; in data set [5], 8.51 nM. For the same compound, the fraction unbound at 4 h, 1 µM in data set [4] is 0.027. Besides, in data set [6] (30 mpk daily oral, 21st day), the “tumor growth inhibition compared to the vehicle control” value came to 72.95%. In addition, the IC50 in data set [2] was 6.31 nM.
As for `Cc1nc2cc(S(=O)(=O)N(C)c3ccc([C@H]4CCC[C@@H](COc5ccc(C(F)(F)F)cc5)[C@@H]4C(=O)O)cc3)cc([C@@H]3CCCNC3)c2n1C.Cl` (stereo in doubt) [Example 210, rel-(1R,2R,6S)-2-((4-(trifluoromethyl)phenoxy)methyl)-6-(4-((N,1,2-trimethyl-7-((S)-piperidin-3-yl)-1H-benzo[d]imidazole)-5-sulfonamido)phenyl)cyclohexane-1-carboxylic acid, hydrochloride], the “SW48 pCC50” value in data set [1] is 4.9. In addition, the “4 hr UNW pIC50” value in data set [2] is given as 5.7.
In the case of `CN(c1ccc([C@H]2CCC[C@@H](C(=O)Nc3ccc(C(F)(F)F)cc3F)[C@@H]2C(=O)O)cc1)S(=O)(=O)c1ccc(-n2cccn2)cc1` [Example 98, (1R,2R,6S)-2-((2-fluoro-4-(trifluoromethyl)phenyl)carbamoyl)-6-(4-((N-methyl-4-(1H-pyrazol-1-yl)phenyl)sulfonamido)phenyl)cyclohexane-1-carboxylic acid], the “SW48 pCC50” value in data set [1] is 5.5. The “4 hr UNW pIC50” value in data set [2] is 8.6.
Turning to `Cc1nc2cc(S(=O)(=O)N(C)c3ccc([C@H]4C[C@@H](N5CCC(F)(F)C5)C[C@@H](C(=O)Nc5ccc(C(F)(F)F)cc5F)[C@@H]4C(=O)O)cc3)ccc2n1C` [Example 306, (1R,2R,4R,6S)-4-(3,3-difluoropyrrolidin-1-yl)-2-((2-fluoro-4-(trifluoromethyl)phenyl)carbamoyl)-6-(4-((N,1,2-trimethyl-1H-benzo[d]imidazole)-5-sulfonamido)phenyl)cyclohexane-1-carboxylic acid], the figures for the CC50 in data set [3] (setting [8]), in data set [3] (setting [7]) and in data set [5] were 100 nM, 100 nM and 10.2 nM, respectively. Further, the fraction unbound at 4 h, 1 µM in data set [4] worked out at 0.103. For the same compound, in data set [6] (30 mpk daily oral, 23rd day), the mean tumor regression was −73.2%. Further, the IC50 in data set [2] is 5.01 nM.
Turning to `CCO[C@@H]1C[C@H](c2ccc(N(C)S(=O)(=O)c3ccc4c(c3)nc(CO)n4C)cc2)[C@@H](C(=O)O)[C@H](C(=O)Nc2ccc(C(F)(F)F)cc2F)C1` [Example 373, (1R,2R,4R,6S)-4-ethoxy-2-((2-fluoro-4-(trifluoromethyl)phenyl)carbamoyl)-6-(4-((2-(hydroxymethyl)-N,1-dimethyl-1H-benzo[d]imidazole)-5-sulfonamido)phenyl)cyclohexane-1-carboxylic acid], the CC50 in data set [3] (setting [8]) is 100 nM; in data set [3] (setting [7]), 100 nM; in data set [5] it was 17.4 nM. In addition, the fraction unbound at 4 h, 1 µM in data set [4] worked out at 0.175. In addition, the IC50 in data set [2] is 1.58 nM.
`Cc1nc2cc(S(=O)(=O)N(C)c3ccc([C@H]4CCC[C@@H](C(=O)Nc5ccc(C(C)C)cc5)[C@@H]4C(=O)O)cc3)ccc2n1C` [Example 396, (1R,2R,6S)-2-((4-isopropylphenyl)carbamoyl)-6-(4-((N,1,2-trimethyl-1H-benzo[d]imidazole)-5-sulfonamido)phenyl)cyclohexane-1-carboxylic acid]: the CC50 in data set [3] (setting [8]) is 631 nM; in data set [3] (setting [7]), 631 nM; in data set [5], 45.7 nM. Besides, in data set [4], the fraction unbound at 4 h, 1 µM was 0.0717. The IC50 in data set [2] was 1.58 nM.
